Reference: patent publication US20230107926A1, “A METHOD FOR TREATING A BIOLOGICAL OBJECT” (OPTICEPT TECHNOLOGIES AB, priority 2020, published 2023)

Legend:
[1] = test system: Cuttings of Pelargonium interspecific: Calliope M Dark Red; assay: Comparative trial of vacuum impregnation (VI) on unrooted Pelargonium cuttings: storage, rooting, losses, acceptability; type: in vivo; conditions: for % Losses after storage: stored at 8° C, losses before sticking; for % Losses / % Rooted / %Not rooted / % Acceptable YPL: 21 days after sticking; for % Acceptable YPL: YPL = young plant
From the text: Comparative trials were made to investigate the effect of a method according to the present invention, that is a method preferably involving vacuum impregnation and which definitely is free from any PEF step, and a method involving a PEF step, either alone or together with an impregnation step, and of course also compared with untreated control(s). Cuttings of Pelargonium interspecific: Calliope M Dark Red was used as the testing material. When testing the method according to the second aspect of the present invention, the following vacuum impregnation parameters (protocol) were used: A pressure falling time of 10 minutes, a holding time of the obtained low pressure of 1 minute and then 15 minutes rising time when the pressure was increased again to atmospheric pressure. The minimum pressure was set at 220 mbar and trehalose 10% was used as the impregnation solution. For the PEF trial and step (not according to the present invention), the parameters used were the following: 500 V in continuous system, 250 µs pulse width and 50 PPV (pulses per volume), 0.3 KW. For the group of cuttings that was subjected only to vacuum impregnation, that is by a method according to the present invention, an additional rinsing step was also performed. Moreover, each group tested consisted of 80 unrooted cuttings, and not any repetitions were performed. When the pelargonium cuttings were received they were processed immediately. After the treatment, the groups were placed in perforated trays and kept inside slightly opened boxes. The boxes were stored 7 days at 8° C. After 7 days of storage the cuttings were evaluated and counted. The damaged (due to Botrytis), rotten or withered ones are removed. These are called losses before sticking. The rooting, losses and acceptability results were obtained 21 days after sticking. […] It should be noted that data for losses after storage were obtained after […] of storage.

[2] = test system: Roses (variety: Athena); assay: Vacuum impregnation on roses, appearance during vase storage at room temperature; type: in vivo; conditions: fructose 2-15 wt%, VI without PEF, versus untreated control
From the text: Roses (variety: Athena) were purchased form a local distributor. The roses were transported from Kenya. The roses arrived at the test site 4 days after harvest.
The treatment according to the present invention was applied to the roses immediately after the arrival. The roses were placed vertically in an impregnation solution, making sure that the flower bud was not immersed in the impregnation solution, thus only the stem and leaves were immersed. The impregnation solution contained sugar (fructose at a concentration of 2-15 wt%). Vacuum was applied reaching a minimum pressure range of 60 - 300 mbar, and with a total treatment time of about 12 minutes.
To continue with the trial performed, after that the vacuum impregnation treatment was finished, the roses were taken out from the impregnation solution. They were then immersed in water, again excluding the flower buds, to wash the sugars from the surface and then placed in a cold room for 24 hours to recover. They were in this case not dried in any way.
After 24 hours the roses were moved to room temperature in order to evaluate the results at the end user conditions. They were stored in a vase, with only the lower part of the stems immersed in water, and the water was renewed every two days.
Roses were stored at room temperature for 13 days after the treatment (Right: roses treated according to the present invention, left: control roses, i.e. not treated).

With `OC[C@H]1O[C@H](O[C@H]2O[C@H](CO)[C@@H](O)[C@H](O)[C@H]2O)[C@H](O)[C@@H](O)[C@@H]1O` [Trehalose 10%, trehalose] the “% Losses after storage” value ([1]; No PEF, only VI (220 mbar)) was 4%, the “% Losses” value ([1]; No PEF, only VI) was 0% and the “% Rooted” value ([1]; No PEF, only VI) was 88%. The “%Not rooted” value ([1]; No PEF, only VI) was 8%, the “% Acceptable YPL” value ([1]; No PEF, only VI) was 46% and the “% Losses after storage” value ([1]; VI + PEF (500 V, 250 µs, 50 PPV)) was 0%. The “% Losses” value ([1]; VI + PEF) was 10%, the “% Rooted” value ([1]; VI + PEF) was 75% and the “%Not rooted” value ([1]; VI + PEF) was 15%. The “% Acceptable YPL” value ([1]; VI + PEF) was 35%.

For `O=C(CO)[C@@H](O)[C@H](O)[C@H](O)CO` [sugar, fructose], the “general appearance of roses” value ([2]; stem and leaves immersed, 13 days at room temperature) was “clear improvement”, the “browning and wilting of the flower buds” value ([2]; room temperature storage) was “delayed” and the “freshness of the treated leaves” value ([2]; room temperature storage) was “preserve freshness better”.
